Reference: PubChem BioAssay (NCI)
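Each compound was tested at five concentrations against cells in 96-well plates for 48 hours. GI50 marks 50% less growth. TGI: concentration producing complete growth inhibition.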

What was measured:
Experiment in all cases: growth of human tumour cells (NCI), 48 h
[1] = test system: BT-549 breast
[2] = test system: HS 578T breast
[3] = test system: M14 melanoma
[4] = test system: MOLT-4 leukemia
[5] = test system: NCI-H522 lung
[6] = test system: SNB-75 CNS
[7] = test system: UACC-257 melanoma
[8] = test system: SF-268 CNS
[9] = test system: SN12C renal
[10] = test system: SF-539 CNS
[11] = test system: NCI-H460 lung
[12] = test system: MDA-MB-231 breast
[13] = test system: LOX IMVI melanoma
[14] = test system: RPMI-8226 leukemia
[15] = test system: SNB-19 CNS
[16] = test system: T-47D breast
[17] = test system: A549 NSCLC
[18] = test system: IGROV1 ovarian
[19] = test system: RXF 393 renal
[20] = test system: HCC-2998 colon
[21] = test system: NCI/ADR-RES ovarian
[22] = test system: OVCAR-3 ovarian
[23] = test system: SK-OV-3 ovarian
[24] = test system: NCI-H226 lung
[25] = test system: OVCAR-5 ovarian
[26] = test system: UACC-62 melanoma
[27] = test system: HT29 colon
[28] = test system: HL-60(TB) leukemia
[29] = test system: OVCAR-8 ovarian
[30] = test system: HCT-116 colon
[31] = test system: SK-MEL-2 melanoma
[32] = test system: UO-31 renal
[33] = test system: 786-0 renal
[34] = test system: NCI-H23 lung
[35] = test system: ACHN renal
[36] = test system: U251 CNS
[37] = test system: MDA-MB-435
[38] = test system: MALME-3M melanoma
[39] = test system: SK-MEL-5 melanoma
[40] = test system: SK-MEL-28 melanoma
[41] = test system: CCRF-CEM leukemia
[42] = test system: COLO 205 colon
[43] = test system: TK-10 renal
[44] = test system: HOP-92 NSCLC
[45] = test system: HCT-15 colon
[46] = test system: SF-295 CNS
[47] = test system: K-562 leukemia
[48] = test system: MCF7 breast
[49] = test system: CAKI-1 renal
[50] = test system: OVCAR-4 ovarian
[51] = test system: KM12 colon
[52] = test system: SW-620 colon
[53] = test system: PC-3 prostate
[54] = test system: EKVX NSCLC
[55] = test system: A498 renal
[56] = test system: HOP-62 NSCLC
[57] = test system: DU-145 prostate
[58] = test system: SR leukemia

## CC[C@H](Nc1ncnc2nc[nH]c12)c1nc2cccc(F)c2c(=O)n1-c1ccccc1
[1]
  GI50: 4.64 µM
  TGI: > 100 µM
[2]
  GI50: 4.12 µM
  TGI: > 88.3 µM
[3]
  GI50: 40.4 µM
  TGI: > 100 µM
[4]
  GI50: 13.9 µM
  TGI: > 87.4 µM
[5]
  GI50: 28.8 µM
  TGI: > 100 µM
[6]
  GI50: 0.715 µM
  TGI: 16.6 µM
[7]
  GI50: 18.9 µM
  TGI: > 100 µM
[8]
  GI50: 19.2 µM
  TGI: > 100 µM
[9]
  GI50: 7.4 µM
  TGI: > 100 µM
[10]
  GI50: 19.7 µM
  TGI: > 100 µM
[11]
  GI50: 36.3 µM
  TGI: > 100 µM
[12]
  GI50: 29.8 µM
  TGI: > 100 µM
[13]
  GI50: 28 µM
  TGI: > 100 µM
[14]
  GI50: 37.6 µM
  TGI: > 100 µM
[15]
  GI50: 39.3 µM
  TGI: > 100 µM
[16]
  GI50: 3.76 µM
  TGI: > 100 µM
[17]
  GI50: 31.2 µM
  TGI: > 100 µM
[18]
  GI50: 4.09 µM
  TGI: 22.7 µM
[19]
  GI50: 1.35 µM
  TGI: 17.4 µM
[20]
  GI50: 58.6 µM
  TGI: > 100 µM
[21]
  GI50: 86.8 µM
  TGI: > 100 µM
[22]
  GI50: 10.2 µM
  TGI: > 100 µM
[23]
  GI50: 16.7 µM
  TGI: > 100 µM
[24]
  GI50: > 65.6 µM
  TGI: > 100 µM
[25]
  GI50: 45 µM
  TGI: > 100 µM
[26]
  GI50: 3.52 µM
  TGI: > 92.4 µM
[27]
  GI50: 30 µM
  TGI: > 100 µM
[28]
  GI50: 4.72 µM
  TGI: 56.5 µM
[29]
  GI50: 44.6 µM
  TGI: > 100 µM
[30]
  GI50: 39.4 µM
  TGI: > 100 µM
[31]
  GI50: 48.4 µM
  TGI: > 100 µM
[32]
  GI50: 3.5 µM
  TGI: > 68.7 µM
[33]
  GI50: 4.29 µM
  TGI: > 100 µM
[34]
  GI50: 80.8 µM
  TGI: > 100 µM
[35]
  GI50: 10.7 µM
  TGI: > 100 µM
[36]
  GI50: 51.2 µM
  TGI: > 100 µM
[37]
  GI50: 19.1 µM
  TGI: > 74.6 µM
[38]
  GI50: 17.2 µM
  TGI: > 100 µM
[39]
  GI50: 26.1 µM
  TGI: > 100 µM
[40]
  GI50: 13.7 µM
  TGI: > 100 µM
[41]
  GI50: 12.2 µM
  TGI: > 100 µM
[42]
  GI50: 72.8 µM
  TGI: > 100 µM
[43]
  GI50: 12.5 µM
  TGI: > 100 µM
[44]
  GI50: 4.86 µM
  TGI: > 60.4 µM
[45]
  GI50: 37.6 µM
  TGI: > 100 µM
[46]
  GI50: 5.75 µM
  TGI: > 100 µM
[47]
  GI50: 30.2 µM
  TGI: > 100 µM
[48]
  GI50: 8.73 µM
  TGI: > 100 µM
[49]
  GI50: 9.94 µM
  TGI: > 100 µM
[50]
  GI50: > 100 µM
  TGI: > 100 µM
[51]
  GI50: 43.7 µM
  TGI: > 100 µM
[52]
  GI50: 79.7 µM
  TGI: > 100 µM
[53]
  GI50: 3.32 µM
  TGI: > 100 µM
[54]
  GI50: 41.5 µM
  TGI: > 100 µM
[55]
  GI50: 1.3 µM
  TGI: 13 µM
[56]
  GI50: > 100 µM
  TGI: > 100 µM
[57]
  GI50: 45.3 µM
  TGI: > 100 µM

## CCCCCCCCCCCCCCCCCC1=NC(C)(C)CN1CC(C)O (stereo not drawn)
[1]
  GI50: 19.7 µM
  TGI: 40.9 µM
[2]
  GI50: 14 µM
  TGI: 34.2 µM
[3]
  GI50: 2.29 µM
  TGI: 5.77 µM
[5]
  GI50: 4.5 µM
  TGI: 23.8 µM
[6]
  GI50: 9.11 µM
  TGI: 23.6 µM
[7]
  GI50: 22.4 µM
  TGI: 40.6 µM
[8]
  GI50: 1.94 µM
  TGI: 4.06 µM
[9]
  GI50: 10.5 µM
  TGI: 24.4 µM
[10]
  GI50: 4.03 µM
  TGI: 19.1 µM
[11]
  GI50: 2.78 µM
  TGI: 7.06 µM
[12]
  GI50: 2.02 µM
  TGI: 4.37 µM
[13]
  GI50: 1.81 µM
  TGI: 3.44 µM
[14]
  GI50: 14.4 µM
  TGI: 36 µM
[15]
  GI50: 7.08 µM
  TGI: 31.5 µM
[16]
  GI50: 6.58 µM
  TGI: 28 µM
[17]
  GI50: 3 µM
  TGI: 7.12 µM
[18]
  GI50: 10.1 µM
  TGI: 27.7 µM
[19]
  GI50: 14.2 µM
  TGI: 31.9 µM
[20]
  GI50: 6.01 µM
  TGI: 18.9 µM
[21]
  GI50: 3.97 µM
  TGI: 23.6 µM
[22]
  GI50: 5.35 µM
  TGI: 19.5 µM
[23]
  GI50: 18.8 µM
  TGI: 37 µM
[58]
  GI50: 2.75 µM
  TGI: > 100 µM
[24]
  GI50: 18.8 µM
  TGI: 38.5 µM
[25]
  GI50: 15.5 µM
  TGI: 31.7 µM
[26]
  GI50: 3.44 µM
  TGI: 12.5 µM
[27]
  GI50: 3.02 µM
  TGI: 7.42 µM
[28]
  GI50: 4.82 µM
  TGI: 24.8 µM
[29]
  GI50: 3.99 µM
  TGI: 14.5 µM
[30]
  GI50: 2.43 µM
  TGI: 5.86 µM
[31]
  GI50: 15.6 µM
  TGI: 31 µM
[32]
  GI50: 13.8 µM
  TGI: 29.4 µM
[33]
  GI50: 14.9 µM
  TGI: 31.7 µM
[34]
  GI50: 12.7 µM
  TGI: 27.1 µM
[35]
  GI50: 7.94 µM
  TGI: 21.9 µM
[36]
  GI50: 4.89 µM
  TGI: 19.9 µM
[37]
  GI50: 2.08 µM
  TGI: 4.5 µM
[38]
  GI50: 17.1 µM
  TGI: 34.4 µM
[39]
  GI50: 17.4 µM
  TGI: 32 µM
[40]
  GI50: 17.1 µM
  TGI: 33.5 µM
[41]
  GI50: 2.71 µM
  TGI: 7.39 µM
[42]
  GI50: 2.5 µM
  TGI: 6.61 µM
[43]
  GI50: 20.9 µM
  TGI: 39 µM
[44]
  GI50: 3.94 µM
  TGI: 17.8 µM
[45]
  GI50: 1.88 µM
  TGI: 3.95 µM
[46]
  GI50: 13 µM
  TGI: 31.4 µM
[47]
  GI50: 2.45 µM
  TGI: 5.44 µM
[48]
  GI50: 3.09 µM
  TGI: 14.1 µM
[49]
  GI50: 14.4 µM
  TGI: 29.4 µM
[50]
  GI50: 12.5 µM
  TGI: 28.4 µM
[51]
  GI50: 6.18 µM
  TGI: 19.5 µM
[52]
  GI50: 2.15 µM
  TGI: 4.78 µM
[53]
  GI50: 3.31 µM
  TGI: 10.8 µM
[54]
  GI50: 13.7 µM
  TGI: 30.1 µM
[55]
  GI50: 15.3 µM
  TGI: 32.2 µM
[56]
  GI50: 5.69 µM
  TGI: 26 µM
[57]
  GI50: 3.66 µM
  TGI: 13.1 µM
